Source: ChEMBL document CHEMBL1201862, “PubChem BioAssay data set” (2004)
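These data come from cells grown in 96-well plates and exposed to compound for 48 hours at five concentrations. GI50 is the concentration that inhibits growth by half.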 The source made the active and inactive calls. No stated cut-off is given here; in the data, active = GI50 up to about 1.1 µM and inactive = higher. Starred links: 1 amine or outer side, 2 acyl side, 3 side chain; linkers in the order of their positions; H or OH if unused. Non-standard residues stand in square brackets, D forms with d. Residues, ends and D or L forms follow the SMILES beside them. X4 = C[C@H](N[*:1])C(=O)C(C)(C)C(=O)[*:2]; Hmpa(2S,3S) = CC[C@H](C)[C@H](O)C(=O)O; NMeY = CN[C@@H](Cc1ccc(O)cc1)C(=O)O; NMeL = CN[C@@H](CC(C)C)C(=O)O; NMeV = CN[C@H](C(=O)O)C(C)C; βAla = NCCC(=O)O

Assays:
Assay in all cases: NCI anticancer screen, dose series, 48 h
XF498 = tested on: XF498
HOP-18 = tested on: HOP-18
KM-20L2 = tested on: KM-20L2
DLD-1 = tested on: DLD-1
SNB-78 = tested on: SNB-78
M19-MEL = tested on: M19-MEL
LXFL 529 = tested on: LXFL 529
RXF 631 = tested on: RXF 631
T47D = tested on: T47D

SMILES	GI50 (XF498)	GI50 (HOP-18)	GI50 (KM-20L2)	GI50 (DLD-1)	GI50 (SNB-78)	GI50 (M19-MEL)	GI50 (LXFL 529)	GI50 (RXF 631)	GI50 (T47D)
O=c1oc2cc(O)ccc2c2[nH]c3cc(O)ccc3c12	25.5 µM (inactive)	50.5 µM (inactive)	37.2 µM (inactive)	30.2 µM (inactive)	43.7 µM (inactive)	27.9 µM (inactive)	27.1 µM (inactive)		
CCCCCCCCCCCCCCCCCCCCCCC(=O)N[C@H]1CCc2cc(OC)c(OC)c(OC)c2-c2ccc(SC)c(=O)cc21	20.8 µM (inactive)		18.7 µM (inactive)		41.9 µM (inactive)	50 µM (inactive)	41.9 µM (inactive)	14.1 µM (inactive)	
O=[N+]([O-])c1cc(/C=N\NS(=O)(=O)c2ccc(Cl)cc2)c(O)c([N+](=O)[O-])c1		42.3 µM (inactive)	28.3 µM (inactive)	72.8 µM (inactive)	38.1 µM (inactive)	48.3 µM (inactive)	30.6 µM (inactive)	28.6 µM (inactive)	
Cc1cc(Br)cc(C)c1NC(=O)C(=O)C(C(=O)c1ccc(Cl)c(Cl)c1)C1OC(=O)c2ccccc21 (centres undefined)			34.6 µM (inactive)	12.4 µM (inactive)	53.3 µM (inactive)	75.2 µM (inactive)	59.3 µM (inactive)	29.6 µM (inactive)	
CC1(C)Cc2cc(C(=O)O)c3c(c2C1=O)COCC3	> 100 µM (inactive)	> 100 µM (inactive)	> 100 µM (inactive)	> 100 µM (inactive)	> 100 µM (inactive)	> 100 µM (inactive)	> 100 µM (inactive)		
ON/N=C/c1cc2c(cc1Br)OCO2		> 386 µM (inactive)	> 386 µM (inactive)	> 386 µM (inactive)		> 386 µM (inactive)	> 386 µM (inactive)	> 386 µM (inactive)	
NCP(=O)(O)OCC(=O)O	> 100 µM (inactive)	> 100 µM (inactive)		> 100 µM (inactive)	> 100 µM (inactive)		> 100 µM (inactive)		
O=C1C(Cl)=C(Cl)C(=O)N1c1ccccc1Cl	> 100 µM (inactive)	> 100 µM (inactive)	> 100 µM (inactive)	> 52.2 µM (inactive)	> 100 µM (inactive)	> 100 µM (inactive)	> 53 µM (inactive)		
C#CC1(O)CCC2[C@@H]3CCc4cc(Oc5nc(F)nc(-c6c7ccccc7c(SCC)n6CCC)n5)ccc4C3CC[C@@]21C (some centres undefined)	> 100 µM (inactive)	24.2 µM (inactive)	> 100 µM (inactive)	> 100 µM (inactive)	> 100 µM (inactive)	> 100 µM (inactive)	38.5 µM (inactive)	> 100 µM (inactive)	
CCOc1ccc(OP2(=O)NC(=O)C=C(C)N2)cc1 (centres undefined)	> 100 µM (inactive)	> 100 µM (inactive)	> 100 µM (inactive)	> 100 µM (inactive)	> 100 µM (inactive)	> 100 µM (inactive)	> 100 µM (inactive)	> 100 µM (inactive)	
CCOC(=O)C1C(=O)CC(=O)C2CCCCC21 (centres undefined)	> 100 µM (inactive)			> 100 µM (inactive)	> 100 µM (inactive)		> 100 µM (inactive)	> 100 µM (inactive)	
CN1C(c2ccccc2)CC(=NO)CC1c1ccccc1 (centres undefined)			54.6 µM (inactive)	41.8 µM (inactive)	> 100 µM (inactive)	37.5 µM (inactive)	52.8 µM (inactive)	48.8 µM (inactive)	
O=C(N/C(=C\c1c(O)ccc2ccccc12)c1nc2ccccc2[nH]1)c1ccccc1	> 100 µM (inactive)	> 100 µM (inactive)	> 100 µM (inactive)	> 100 µM (inactive)	> 100 µM (inactive)	> 100 µM (inactive)	> 100 µM (inactive)	> 100 µM (inactive)	
C[C@@]1(CBr)C[C@@](C)(/C=C/Cl)[C@@H](Cl)C[C@H]1Cl	11.7 µM (inactive)	13.5 µM (inactive)	11.6 µM (inactive)	13.6 µM (inactive)	2.94 µM (inactive)	13.1 µM (inactive)	10 µM (inactive)	11.9 µM (inactive)	
COc1cc2c(cc1OC)C1(c3ccc(Cl)cc3)ON=C(c3ccccc3)N1CS2 (centres undefined)		> 100 µM (inactive)	> 100 µM (inactive)	> 100 µM (inactive)	4.56 µM (inactive)	> 100 µM (inactive)	> 100 µM (inactive)	> 100 µM (inactive)	
O=C(C[n+]1ccccc1)NNC(=O)/C(=C/c1ccc2c(c1)OCO2)NC(=O)c1ccccc1	> 41.2 µM (inactive)	34.9 µM (inactive)	> 73.3 µM (inactive)	38.2 µM (inactive)	> 56.8 µM (inactive)	41.7 µM (inactive)	38.7 µM (inactive)		
CN(C(=O)C12C3C4C1C1C2C3C41C#N)C(C)(C)C (centres undefined)			> 100 µM (inactive)	> 100 µM (inactive)	> 100 µM (inactive)	> 100 µM (inactive)	> 100 µM (inactive)	> 100 µM (inactive)	
CC(C)(C)c1cc(CCCCCCCC2(CCCCCCCc3cc(C(C)(C)C)cc(C(C)(C)C)c3)OC(COCCOCCCCCC#N)C(COCCOCCCCCC#N)O2)cc(C(C)(C)C)c1 (centres undefined)		> 100 µM (inactive)	> 100 µM (inactive)	> 100 µM (inactive)	> 100 µM (inactive)	> 100 µM (inactive)	> 100 µM (inactive)		

SMILES	GI50 (XF498)	GI50 (HOP-18)	GI50 (KM-20L2)	GI50 (DLD-1)	GI50 (SNB-78)	GI50 (M19-MEL)	GI50 (LXFL 529)	GI50 (RXF 631)	GI50 (T47D)
C[N+](C)(C)CC1CCCC(C[N+](C)(C)C)C1O (centres undefined)		> 100 µM (inactive)	> 100 µM (inactive)	> 100 µM (inactive)	> 100 µM (inactive)	> 100 µM (inactive)	> 100 µM (inactive)	> 100 µM (inactive)	
O=C(NC1CCCCCC1)C1C(=O)N(C2CCCCCC2)C(=O)/C1=N\O (centres undefined)		48.9 µM (inactive)	23.1 µM (inactive)	44.1 µM (inactive)	34.3 µM (inactive)	28.2 µM (inactive)	31.8 µM (inactive)		
CN(C)CC1CCCC(CN(C)C)C1OC(=O)c1ccccc1 (centres undefined)		> 100 µM (inactive)	> 100 µM (inactive)	> 100 µM (inactive)	> 100 µM (inactive)	> 100 µM (inactive)	> 100 µM (inactive)		
COc1cc(OC)c2c(=O)cc(-c3ccc(OC)c(OC)c3OC)oc2c1	> 100 µM (inactive)		> 100 µM (inactive)	> 100 µM (inactive)		> 100 µM (inactive)	89.5 µM (inactive)		
CC1=NN(C(=O)c2ccccc2O)C(=O)/C1=C/c1ccco1	25.8 µM (inactive)		15 µM (inactive)	0.502 µM (active)	22.6 µM (inactive)	1.88 µM (inactive)	1.54 µM (inactive)		> 100 µM (inactive)
Cc1nnc(N/N=C2\C(=O)Nc3ccccc32)n1N	> 100 µM (inactive)	> 100 µM (inactive)	> 100 µM (inactive)	> 100 µM (inactive)	> 100 µM (inactive)	> 100 µM (inactive)	> 100 µM (inactive)	> 100 µM (inactive)	
O=C1CCC2(c3ccccc3)Nc3cc(Cl)ccc3N12 (centres undefined)	19.7 µM (inactive)		30 µM (inactive)	34.9 µM (inactive)	31.7 µM (inactive)	30.8 µM (inactive)	31.4 µM (inactive)	47.5 µM (inactive)	
Cc1cccc(N2CCN(S(=O)(=O)c3ccc(Cl)cc3)C2=N)c1C									> 100 µM (inactive)
CC(=O)/C(=C\NC(N)=S)C(=O)Nc1ccccc1C									> 100 µM (inactive)
CC12CC3CC(C)(C1)CC(N=[N+]=[N-])(C3)C2	> 100 µM (inactive)	> 100 µM (inactive)		> 100 µM (inactive)	> 100 µM (inactive)	> 100 µM (inactive)	> 100 µM (inactive)		
N#CC1(C#N)C=CC(=C2OCC3CCCN23)C=C1 (centres undefined)		> 100 µM (inactive)	> 100 µM (inactive)	> 100 µM (inactive)	> 100 µM (inactive)	> 100 µM (inactive)	> 100 µM (inactive)		
O=C1C=C/C(=N\c2ccc3c(c2)C(Br)c2ccccc2-3)O1 (centres undefined)				> 100 µM (inactive)	> 100 µM (inactive)	> 100 µM (inactive)	28.8 µM (inactive)		
C1C2CC3CC1CC(Nc1nc(NC45CC6CC(CC(C6)C4)C5)nc(NC45CC6CC(CC(C6)C4)C5)n1)(C2)C3									72.1 µM (inactive)
CC[C@H](C)[C@@H]1OC(=O)CCNC(=O)[C@@H](C)NC(=O)C(C)(C)C(=O)[C@H](C)NC(=O)[C@H](Cc2ccc(OC)cc2)N(C)C(=O)[C@H](C(C)C)N(C)C(=O)CNC(=O)[C@H](CC(C)C)N(C)C(=O)CNC1=O (cyclo(G[NMeL]G[NMeV][NMeY](Me)[X4][dA][βAla][Hmpa(2S,3S)]))									2.19 µM (inactive)
O=c1c2cc(-c3ccccc3)cnc2sn1-c1ccc(Oc2ccccc2)cc1									63 µM (inactive)
CCc1ccc2oc(-c3cc(O)c(-c4nc5cc(CC)ccc5o4)cc3O)nc2c1									> 100 µM (inactive)
CN1C(=O)c2ccccc2NC(=O)C12O[C@@H]2c1cccc(O)c1 (some centres undefined)									> 100 µM (inactive)
